What was measured:
[1] = tested on: oxidation of proteins in the skin; test: UVB-induced oxidation of proteins in the skin (protein carbonyl formation, OxyBlot western blot); assay type: in vivo, mice; conditions: EGCG about 1 mg/cm^2, ascorbic acid about 0.5 mg/cm^2, topical
Method: (§1) Hydrophilic cream was used as a vehicle.
FIG. 4 depicts a western blot analysis using antibodies against carbonyl-containing proteins. Protein oxidation was determined following western blot analysis by using OxyBlot Protein Oxidation Detection kit (Intergen Company, Purchase, N.Y.).

[2] = tested on: UV-induced markers of oxidative stress; test: UV-induced markers of oxidative stress and skin appearance, UVB one month on alternate days; assay type: in vivo, mice
Source text: In another exemplary treatment, mice were exposed to UVB (90 mJ/cm^2) for a period of one month on alternate days with or without polyphenone E in the drinking water (0.2%, w/v). Remarkably, this protocol inhibited UV-induced markers of oxidative stress, however, to a lesser extent than topical treatment.

[3] = tested on: MMP-2, MMP-3, MMP-7 and MMP-9; test: UVB-induced expression of matrix metalloproteinases by western blot; assay type: in vivo, mice; conditions: EGCG about 1 mg/cm^2, ascorbic acid about 0.5 mg/cm^2, topical
Source text: 4. Matrix metalloproteinases, like MMP-2, MMP-3, MMP-7 and MMP-9 which play a major role in degradation of extracellular matrix of the skin and leads to skin aging or wrinkle formation.
as §1
Most matrix proteins provide tensile strength to the skin, and are therefore thought to be associated with photoageing and/or wrinkling of skin. We previously reported that chronic exposure of skin to UVB induces the up-regulation of several MMP, particularly, MMP-2, MMP-3, MMP-7 and MMP-9. […] The blots were stripped and re-probed for β-actin antibody to verify equal protein loading and equal transfer of proteins from gel to membrane.

[4] = tested on: TIMP; test: Expression of tissue inhibitor of matrix metalloproteinase in UVB exposed skin; assay type: in vivo, mice; conditions: topical
Source text: 5. Tissue inhibitor of matrix metalloproteinase (TIMP).
Most matrix proteins provide tensile strength to the skin, and are therefore thought to be associated with photoageing and/or wrinkling of skin. […] The blots were stripped and re-probed for β-actin antibody to verify equal protein loading and equal transfer of proteins from gel to membrane.

[5] = tested on: H2O2; test: Intracellular release of H2O2 in skin cells after UVB (dihydrorhodamine 123), topical treatment; assay type: in vivo, mice; conditions: for effect on UVB-induced H2O2 production in cells: EGCG about 1 mg/cm^2, ascorbic acid about 0.5 mg/cm^2, topical; for H2O2 production in skin cells, control experiments without UVB: topical treatment individually
Method: 2. Hydrogen peroxide production as a marker of oxidative stress.
as §1
After UVB exposure, a single cell suspension from the epidermis and dermis was prepared following procedures well known in the art. H2O2 was assayed using dihydrorhodamine 123 as a fluorescent dye probe. […] Treatment with ascorbic acid and EGCG inhibited UVB-induced H2O2 production in cells.

[6] = tested on: SKH-1 hairless mice; conditions: for prevention of UVB-induced skin damage as measured by the bi-fold thickness test: topical at optimum dosages (AA 0.5 mg/cm^2, EGCG 1 mg/cm^2), UVB 90 mJ/cm^2 two months on alternate days
Method: (§2) SKH-1 hairless mice were used at an age of between 6-8 weeks. The mice were UVB exposed (90 mJ/cm^2) for two months on alternate days for the present photoageing model. At the termination of the experiment, mice were sacrificed 24 hr after the last UV exposure, skin biopsies were collected for analyzing various parameters.
Ascorbic acid and EGCG (or polyphenon E) were dissolved at various concentrations in a hydrophilic cream and were topically applied on the mouse skin 25-30 min before each exposure of UVB. […] Therefore, to evaluate the anti-photoaging effects, we used this dose in all the experiments performed.
Bi-fold skin thickness of the UV exposed skin site with or without the treatment of ascorbic acid (AA) and EGCG.
Control experiments were performed to verify skin damage due to UVB exposure at the above dosage regimen. […] In the below experiments, mice were irradiated to UVB (90 mJ/cm^2) for two months on alternate days to effect photoageing of the skin. Mice were topically treated either with AA, EGCG or a combination of AA (unless indicated otherwise at 0.5 mg EGCG/cm^2 skin area) and EGCG (unless indicated otherwise at 1 mg EGCG/cm^2 skin area) before each exposure of the UVB to determine the photoprotective effect of these agents. Hydrophilic cream was used as a vehicle. UVB alone irradiated mice (control) were topically treated with vehicle only before UVB exposure.
Therefore, and based on these findings, dosages of ascorbic acid for selected experiments were maintained at about or below 0.5 mg/cm^2.
To determine if the effect was additive or synergistic, ascorbic acid and EGCG were topically used at the above determined optimum dosages.

[7] = tested on: UVB-induced adverse effects in the skin; test: Preliminary dose-dependent efficacy against UVB-induced adverse effects in the skin; assay type: in vivo, mice; conditions: topical 1 mg EGCG/cm^2 skin area, preliminary studies
Method: as §2
Ascorbic acid and EGCG (or polyphenon E) were dissolved at various concentrations in a hydrophilic cream and were topically applied on the mouse skin 25-30 min before each exposure of UVB. In preliminary studies, we tested the efficacy of AA and EGCG dose-dependently against UVB-induced adverse effects in the skin.

| Structure (SMILES) | effect on UVB-induced oxidation of proteins [1] | chemopreventive efficacy, compared ([2]; UVB 90 mJ/cm^2 one month on alternate days) | skin appearance in comparison to UV alone exposed skin sites ([2]; plus UV exposed mice) | effect on UVB-induced expression of selected MMP [3] | expression of TIMP [4] | effect on UVB-induced H2O2 production in cells [5] | H2O2 production in skin cells, control experiments without UVB [5] | prevention of UVB-induced skin damage as measured by the bi-fold thickness test [6] | dosage up to which photoprotection increased (bi-fold thickness test) ([6]; topical, little or no further beneficial effect at increasing dosages) | chemopreventive effects against UVB radiation [7] | inflammatory reaction of skin ([6]; topical doses substantially above 0.5 mg/cm^2 of skin) | optimum dosage (protection measured by bi-fold skin thickness) ([6]; topical, data not shown) |
| --- | --- | --- | --- | --- | --- | --- | --- | --- | --- | --- | --- | --- |
| O=C(O[C@@H]1Cc2c(O)cc(O)cc2O[C@@H]1c1cc(O)c(O)c(O)c1)c1cc(O)c(O)c(O)c1 [EGCG, epigallocatechin gallate] | inhibited UVB-induced oxidation of proteins to some degree | superior to polyphenone E | relatively better | inhibited UVB-induced expression of selected MMP to at least some degree | up-regulated | inhibited | did not induce H2O2 production | substantially less protection | about 1.0 mg/cm^2 | significant chemopreventive effects |  |  |
| O=C1O[C@H]([C@@H](O)CO)C(O)=C1O [ascorbic acid] | inhibited UVB-induced oxidation of proteins to some degree |  |  | inhibited UVB-induced expression of selected MMP to at least some degree | up-regulated | inhibited | did not induce H2O2 production | substantially less protection |  |  | tended to provoke an inflammatory reaction | about 0.5 mg/cm^2 |

Reference: US20100069476A1, “COMPOSITIONS AND METHODS FOR REDUCTION OF CUTANEOUS PHOTOAGEING” (MITSUI NORIN CO., LTD, priority 2005, published 2010)
